# Values of other authors in patent US20210319872A1, “DRUG AND DEVICE COMBINATION PRODUCTS WITH IMPROVED SAFETY AND EFFICACY PROFILES” (priority 2016, published 2021).
# Read-outs that look alike come from different tables or passages of the source.
compound,measurement,setting,value
CCCC(CCC)C(=O)O.CCCC(CCC)C(=O)[O-].[Na+] [Divalproex (Depakote)],Asthenia,in vivo,"Neurologic: Asthenia (6% to 27%), Dizziness (up to 25%), Feeling"
same,Backache,in vivo,"1% to less than 5%; migraine, 8%)"
same,"Common side effects, listed without incidence",in vivo,"Ophthalmic: Amblyopia, Blurred vision, Diplopia (16%)"
same,Diplopia,in vivo,"Ophthalmic: Amblyopia, Blurred vision, Diplopia (16%)"
same,Dizziness,in vivo,"Neurologic: Asthenia (6% to 27%), Dizziness (up to 25%), Feeling"
same,Feeling nervous,in vivo,"nervous (up to 11%), Headache (31%), Insomnia (up to 15%),"
same,Headache,in vivo,"nervous (up to 11%), Headache (31%), Insomnia (up to 15%),"
same,Indigestion,in vivo,"23%), Indigestion (8% to 11%), Loss of appetite (4% to 12%),"
same,Infectious disease,in vivo,"Other: Infectious disease (12% to 20%), Influenza (12%)"
same,Influenza,in vivo,"Other: Infectious disease (12% to 20%), Influenza (12%)"
same,Insomnia,in vivo,"nervous (up to 11%), Headache (31%), Insomnia (up to 15%),"
same,Nausea,in vivo,"Nausea (26% to 48%), Vomiting (15% to 27%)"
same,Ototoxicity - deafness,in vivo,Otic: Ototoxicity - deafness (greater than 1% to less than 5%)
same,Palpitations,in vivo,"Cardiovascular: Palpitations (greater than 1% to less than 5%),"
same,Pancreatitis,in vivo,Gastrointestinal: Pancreatitis (greater than 1% to less than 5%)
same,Somnolence,in vivo,"Somnolence (Adult, 7% to 30%; pediatric, greater than 5%),"
same,Tachycardia,in vivo,Tachycardia (greater than 1% to less than 5%)
same,"Thrombocytopenia, Dose-related",in vivo,Dose-related (1% to 27%)
same,Tremor,in vivo,Tremor (1% to 57%)
same,Vomiting,in vivo,"Nausea (26% to 48%), Vomiting (15% to 27%)"
Fc1ccc([C@@H]2CCNC[C@H]2COc2ccc3c(c2)OCO3)cc1 [Paroxetine (Paxil)],Abnormal ejaculation,in vivo,"Reproductive: Abnormal ejaculation (13% to 28%), Erectile"
same,Asthenia,in vivo,"Neurologic: Asthenia (up to 22%), Dizziness (6% to 14%),"
same,Constipation,in vivo,"Gastrointestinal: Constipation (up to 16%), Diarrhea (up to 18%),"
same,Diaphoresis,in vivo,Dermatologic: Diaphoresis (5% to 14%)
same,Diarrhea,in vivo,"Gastrointestinal: Constipation (up to 16%), Diarrhea (up to 18%),"
same,Dizziness,in vivo,"Neurologic: Asthenia (up to 22%), Dizziness (6% to 14%),"
same,Erectile dysfunction,in vivo,"dysfunction (2% to 9%), Orgasm disorder (females; 2% to 9%),"
same,Headache,in vivo,"Headache (17% to 27%), Insomnia (up to 24%), Somnolence (up to"
same,Nausea,in vivo,"Loss of appetite (up to 9%), Nausea (up to 26%), Xerostomia (9%"
same,Orgasm disorder,in vivo,"dysfunction (2% to 9%), Orgasm disorder (females; 2% to 9%),"
same,Palpitations,in vivo,"Cardiovascular: Palpitations (up to 3%), Vasodilatation (2% to 4%)"
same,Reduced libido,in vivo,Reduced libido (males: 6% to 15%; females: 0% to 9%)
same,Seizure,in vivo,Neurologic: Seizure (0.1%)
same,Somnolence,in vivo,"≤ 24%), Tremor (4% to 11%)"
same,Tremor,in vivo,"24%), Tremor (4% to 11%)"
same,Vasodilatation,in vivo,"Cardiovascular: Palpitations (up to 3%), Vasodilatation (2% to 4%)"
same,Xerostomia,in vivo,"Loss of appetite (up to 9%), Nausea (up to 26%), Xerostomia (9%"
same,Yawning,in vivo,Respiratory: Yawning (4%)
Cc1nc2n(c(=O)c1CCN1CCC(c3noc4cc(F)ccc34)CC1)CCCC2 [Risperidone (Risperdal)],Akathisia,in vivo,"Neurologic: Akathisia (oral, up to 10%; IM, 4% to 11%), Dizziness"
same,Anxiety,in vivo,"Psychiatric: Anxiety (oral, up to 16% IM, less than 4%)"
same,Constipation,in vivo,"Gastrointestinal: Constipation (oral, 8% to 21%; IM, 5% to 7%),"
same,Diarrhea,in vivo,"Diarrhea (oral, 1% to 8%; IM, less than 4%), Excessive salivation"
same,Dystonia,in vivo,"< 5%; pediatric, 2% to 6%; IM, adult, less than 4%), Parkinsonism"
same,Excessive salivation,in vivo,"(oral, 1% to 10%; IM, 1% to 4%), Increased appetite (oral, adult,"
same,Fatigue,in vivo,"3% to 9%), Pain, General (IM, 1% to 4%)"
same,Hyperprolactinemia,in vivo,"< 1%; pediatrics, 49% to 87%; IM, less than 4%), Weight increased"
same,Increased appetite,in vivo,"more than 5%; pediatric, 4% to 47%; IM, 4%), Indigestion (oral,"
same,Indigestion,in vivo,"2% to 10%; IM, 6%), Nausea (oral, 4% to 16%; IM, 3% to 4%),"
same,Nausea,in vivo,"2% to 10%; IM, 6%), Nausea (oral, 4% to 16%; IM, 3% to 4%),"
same,"Pain, General",in vivo,"3% to 9%), Pain, General (IM, 1% to 4%)"
same,Parkinsonism,in vivo,"(oral, 6% to 28%; IM, 8% to 15%), Sedated (oral, adult, 3% to 6%;"
same,Rash,in vivo,"IM, less than 4%)"
same,Syncope,in vivo,"Syncope (oral, up to 1%; IM, up to 2%)"
same,Tardive dyskinesia,in vivo,"less than 5%; IM, less than 4%)"
same,Tremor,in vivo,"pediatric, 8% to 29%), Tremor (oral, 2% to 12%; IM, 3% to 24%)"
same,Upper respiratory infection,in vivo,"respiratory infection (oral, 2% to 8%; IM, 2% and 6%)"
same,Vomiting,in vivo,"< 16%), Vomiting (oral, 10% to 25%; IM, less than 4%), Xerostomia"
same,Weight increased,in vivo,"(oral, adult, 8.7% to 20.9%; pediatric, 14% to 32.6%; IM, adult, 8%"
same,Xerostomia,in vivo,"(oral, 4% to 15%; IM, up to 7%)"
same,Akathisia,"in vivo, po","Neurologic: Akathisia (oral, up to 10%; IM, 4% to 11%), Dizziness"
same,Anxiety,"in vivo, po","Psychiatric: Anxiety (oral, up to 16% IM, less than 4%)"
same,Cerebrovascular accident,"in vivo, po","Neurologic: Cerebrovascular accident (oral, less than 5%; IM, less"
same,Constipation,"in vivo, po","Gastrointestinal: Constipation (oral, 8% to 21%; IM, 5% to 7%),"
same,Diarrhea,"in vivo, po","Diarrhea (oral, 1% to 8%; IM, less than 4%), Excessive salivation"
same,Excessive salivation,"in vivo, po","(oral, 1% to 10%; IM, 1% to 4%), Increased appetite (oral, adult,"
same,Fatigue,"in vivo, po","Other: Fatigue (oral, adult, 1% to 3%; pediatric, 18% to 42%; IM,"
same,Hyperprolactinemia,"in vivo, po","< 1%; pediatrics, 49% to 87%; IM, less than 4%), Weight increased"
same,Increased appetite,"in vivo, po","more than 5%; pediatric, 4% to 47%; IM, 4%), Indigestion (oral,"
same,Indigestion,"in vivo, po","2% to 10%; IM, 6%), Nausea (oral, 4% to 16%; IM, 3% to 4%),"
same,Nasal congestion,"in vivo, po","4%), Nasal congestion (oral, adult, 4% to 6%; pediatric, 13%),"
same,Nausea,"in vivo, po","2% to 10%; IM, 6%), Nausea (oral, 4% to 16%; IM, 3% to 4%),"
same,Pain in throat,"in vivo, po","throat (oral, adult, more than 5%; pediatric, 3% to 10%), Upper"
same,Parkinsonism,"in vivo, po","(oral, 6% to 28%; IM, 8% to 15%), Sedated (oral, adult, 3% to 6%;"
same,Rash,"in vivo, po","Dermatologic: Rash (oral, adults, 1% to 4%; pediatrics, up to 11%;"
same,Syncope,"in vivo, po","Syncope (oral, up to 1%; IM, up to 2%)"
same,Tardive dyskinesia,"in vivo, po","less than 5%; IM, less than 4%)"
same,Tremor,"in vivo, po","pediatric, 8% to 29%), Tremor (oral, 2% to 12%; IM, 3% to 24%)"
same,Upper respiratory infection,"in vivo, po","respiratory infection (oral, 2% to 8%; IM, 2% and 6%)"
same,Vomiting,"in vivo, po","16%), Vomiting (oral, 10% to 25%; IM, less than 4%), Xerostomia"
same,Weight increased,"in vivo, po","(oral, adult, 8.7% to 20.9%; pediatric, 14% to 32.6%; IM, adult, 8%"
same,Xerostomia,"in vivo, po","(oral, 4% to 15%; IM, up to 7%)"
CN(CCOc1ccc(NS(C)(=O)=O)cc1)CCc1ccc(NS(C)(=O)=O)cc1 [Tikosyn],Chest pain,in vivo,Cardiovascular: Chest pain (10%)
same,Dizziness,in vivo,"Neurologic: Dizziness (8%), Headache (11%)"
same,Headache,in vivo,"Neurologic: Dizziness (8%), Headache (11%)"
same,Heart block,in vivo,"Cardiovascular: Heart block (up to 1.2%), Prolonged QT interval,"
same,Torsades de pointes,in vivo,"Torsades de pointes (0.8%), Ventricular arrhythmia (up to 14.5%),"
same,Ventricular arrhythmia,in vivo,"Torsades de pointes (0.8%), Ventricular arrhythmia (up to 14.5%),"
same,Ventricular tachycardia,in vivo,≤ 12.4%)
same,"Serious side effect, Cardiovascular",listed without frequency,"Cardiovascular: Heart block (up to 1.2%), Prolonged QT interval,"
CCC[C@H](N[C@@H](C)C(=O)N1[C@H](C(=O)O)C[C@@H]2CCCC[C@@H]21)C(=O)OCC [Perindopril (Aceon)],Angioedema,in vivo,Other: Angioedema (0.1% to 0.5%)
same,Backache,in vivo,Musculoskeletal: Backache (5.8%)
same,Cough,in vivo,Respiratory: Cough (12%)
same,Dizziness,in vivo,"Neurologic: Asthenia, Dizziness (8.2%), Headache"
same,Orthostatic hypotension,in vivo,"Cardiovascular: Cardiac arrest, Orthostatic hypotension (0.8%)"
CC#CCn1c(N2CCC[C@@H](N)C2)nc2c1c(=O)n(Cc1nc(C)c3ccccc3n1)c(=O)n2C [Tradjenta],Hypoglycemia,combination therapy,"combination therapy, 22.9%)"
same,Nasopharyngitis,in vivo,Respiratory: Nasopharyngitis (7%)
same,Hypoglycemia,monotherapy,"Endocrine metabolic: Hypoglycemia (monotherapy, 6.6%;"
O=C(NC[C@H]1CN(c2ccc(N3CCOCC3=O)cc2)C(=O)O1)c1ccc(Cl)s1 [Rivaroxaban (Xarelto)],Gastrointestinal hemorrhage,in vivo,"fibrillation, 3.1%)"
same,Syncope,in vivo,Cardiovascular: Syncope (1.2%)
"COCCc1ccc(OCC(O)CNC(C)C)cc1 (stereo not drawn) [Metoprolol (Lopressor, Toprol XL)]",Bradyarrhythmia,in vivo,"Cardiovascular: Bradyarrhythmia (3%), Cold extremities (1%),"
same,Bronchospasm,in vivo,Respiratory: Bronchospasm (1%)
same,Cold extremities,in vivo,"Cardiovascular: Bradyarrhythmia (3%), Cold extremities (1%),"
same,"Common side effects, listed without incidence",in vivo,"Neurologic: Dizziness (10%), Fatigue (10%), Headache"
same,Constipation,in vivo,"Gastrointestinal: Constipation (1%), Diarrhea (5%), Indigestion"
same,Depression,in vivo,Psychiatric: Depression (5%)
same,Diarrhea,in vivo,"Gastrointestinal: Constipation (1%), Diarrhea (5%), Indigestion"
same,Dizziness,in vivo,"Neurologic: Dizziness (10%), Fatigue (10%), Headache"
same,Dyspnea,in vivo,"Respiratory: Dyspnea (3%), Wheezing (1%)"
same,Fatigue,in vivo,"Neurologic: Dizziness (10%), Fatigue (10%), Headache"
same,Heart failure,in vivo,"Heart failure (1%), Hypotension (1%)"
same,Hypotension,in vivo,"Heart failure (1%), Hypotension (1%)"
same,Indigestion,in vivo,"(1%), Nausea (1%)"
same,Nausea,in vivo,"(1%), Nausea (1%)"
same,Pruritus,in vivo,"Dermatologic: Pruritus (5%), Rash (5%)"
same,Rash,in vivo,"Dermatologic: Pruritus (5%), Rash (5%)"
same,Wheezing,in vivo,"Respiratory: Dyspnea (3%), Wheezing (1%)"
CCCN[C@H]1CCc2nc(N)sc2C1 [Pramipexole (Mirapex)],Amnesia,in vivo,"Neurologic: Amnesia (4% to 6%), Asthenia (Immediate-release,"
same,Asthenia,in vivo,"10% to 14%; extended-release, 3%), Confusion (4% to 10%),"
same,Confusion,in vivo,"10% to 14%; extended-release, 3%), Confusion (4% to 10%),"
same,Dizziness,in vivo,"Dizziness (Immediate-release, 3% to 26%; extended-release, 2% to"
same,Dream disorder,in vivo,"≤ 12%), Dream disorder (Up to 11%), Dyskinesia (Immediate-"
same,Dyskinesia,in vivo,"release, 18% to 47%; extended-release, 17%), Extrapyramidal"
same,Extrapyramidal movements,in vivo,"movements (28%), Headache (Immediate-release, 4% to 16%;"
same,Hallucinations,in vivo,Psychiatric: Hallucinations (5% to 17%)
same,Sleep attack,in vivo,"Neurologic: Sleep attack (2% to 6%), Somnolence (Immediate-"
same,Somnolence,in vivo,"release, 6% to 33%; extended-release, 15% to 36%)"
